Assay results published in ChEMBL document CHEMBL3217526, “Bioguided discovery and pharmacophore modeling of the mycotoxic indole diterpene alkaloids penitrems as breast cancer proliferation, migration, and invasion inhibitors” (Medchemcomm, 2013).
The source made the active and inactive calls. The calls are words filed in the database; no cut-off is given here.

Key:
SNB-19 = test: Cytotoxicity against human SNB19 cells assessed as growth inhibition at 10 uM; assay type: functional; conditions: read-out: GI
BT-549 = test: Cytotoxicity against human BT549 cells assessed as growth inhibition at 10 uM; assay type: functional; conditions: read-out: GI
SF-268 = test: Cytotoxicity against human SF268 cells assessed as growth inhibition at 10 uM; assay type: functional; conditions: read-out: GI
NCI-H226 = test: Cytotoxicity against human NCI-H226 cells assessed as growth inhibition at 10 uM; assay type: functional; conditions: read-out: GI
Caenorhabditis elegans [1] = test: Toxicity in L1 stage Caenorhabditis elegans N2 assessed as viability and reproduction at 10 uM; assay type: organism-based; conditions: in vivo
NCI-H23 = test: Cytotoxicity against human NCI-H23 cells assessed as growth inhibition at 10 uM; assay type: functional; conditions: read-out: GI
HCT-116 = test: Cytotoxicity against human HCT116 cells assessed as growth inhibition at 10 uM; assay type: functional; conditions: read-out: GI
[2] = Cytotoxicity against human UO31 cells assessed as growth inhibition at 10 uM; assay type: functional; conditions: UO-31, read-out: GI
MDA-MB-231 [3] = test: Antiinvasive activity against human MDA-MB-231 cells assessed as inhibition of cell invasion at 15 uM after 24 hrs by BME Cell invasion assay kit; assay type: functional
MDA-MB-231 [4] = test: Cytotoxicity against human MDA-MB-231 cells assessed as growth inhibition at 10 uM; assay type: functional; conditions: read-out: GI
T47D = test: Cytotoxicity against human T47D cells assessed as growth inhibition at 10 uM; assay type: functional; conditions: read-out: GI
LOX IMVI = test: Cytotoxicity against human LOXIMVI cells assessed as growth inhibition at 10 uM; assay type: functional; conditions: read-out: GI
CAKI-1 = test: Cytotoxicity against human CAKI-1 cells assessed as growth inhibition at 10 uM; assay type: functional; conditions: read-out: GI
KM12 = test: Cytotoxicity against human KM12 cells assessed as growth inhibition at 10 uM; assay type: functional; conditions: read-out: GI
SK-MEL-2 = test: Cytotoxicity against human SK-MEL-2 cells assessed as growth inhibition at 10 uM; assay type: functional; conditions: read-out: GI
[5] = Cytotoxicity against human OVCAR3 cells assessed as growth inhibition at 10 uM; assay type: functional; conditions: OVCAR-3, read-out: GI
SK-MEL-28 = test: Cytotoxicity against human SK-MEL-28 cells assessed as growth inhibition at 10 uM; assay type: functional; conditions: read-out: GI
SNB-75 = test: Cytotoxicity against human SNB75 cells assessed as growth inhibition at 10 uM; assay type: functional; conditions: read-out: GI
NCI-H522 = test: Cytotoxicity against human NCI-H522 cells assessed as growth inhibition at 10 uM; assay type: functional; conditions: read-out: GI
U-251 = test: Cytotoxicity against human U251 cells assessed as growth inhibition at 10 uM; assay type: functional; conditions: read-out: GI
SF-539 = test: Cytotoxicity against human SF539 cells assessed as growth inhibition at 10 uM; assay type: functional; conditions: read-out: GI
RPMI-8226 = test: Cytotoxicity against human RPMI8226 cells assessed as growth inhibition at 10 uM; assay type: functional; conditions: read-out: GI
MCF7 [6] = test: Antiproliferative activity against human MCF7 cells after 72 hrs by MTT assay; assay type: functional, cell-based; conditions: MCF7, 72 h
[7] = Cytotoxicity against human OVCAR5 cells assessed as growth inhibition at 10 uM; assay type: functional; conditions: OVCAR-5, read-out: GI
SK-OV-3 = test: Cytotoxicity against human SKOV3 cells assessed as growth inhibition at 10 uM; assay type: functional; conditions: read-out: GI
CCRF-CEM = test: Cytotoxicity against human CCRF-CEM cells assessed as growth inhibition at 10 uM; assay type: functional; conditions: read-out: GI
M14 = test: Cytotoxicity against human M14 cells assessed as growth inhibition at 10 uM; assay type: functional; conditions: read-out: GI
[8] = Cytotoxicity against human EKVX cells assessed as growth inhibition at 10 uM; assay type: functional; conditions: read-out: GI
DU-145 = test: Cytotoxicity against human DU145 cells assessed as growth inhibition at 10 uM; assay type: functional; conditions: read-out: GI
TK-10 = test: Cytotoxicity against human TK10 cells assessed as growth inhibition at 10 uM; assay type: functional; conditions: read-out: GI
HCC 2998 = test: Cytotoxicity against human HCC2998 cells assessed as growth inhibition at 10 uM; assay type: functional; conditions: read-out: GI
IGROV-1 = test: Cytotoxicity against human IGROV1 cells assessed as growth inhibition at 10 uM; assay type: functional; conditions: read-out: GI
A549 = test: Cytotoxicity against human A549 cells assessed as growth inhibition at 10 uM; assay type: functional; conditions: read-out: GI
[9] = Cytotoxicity against human OVCAR4 cells assessed as growth inhibition at 10 uM; assay type: functional; conditions: OVCAR-4, read-out: GI
NCI-H460 = test: Cytotoxicity against human NCI-H460 cells assessed as growth inhibition at 10 uM; assay type: functional; conditions: read-out: GI
786-0 = test: Cytotoxicity against human 786-0 cells assessed as growth inhibition at 10 uM; assay type: functional; conditions: read-out: GI
SK-MEL-5 = test: Cytotoxicity against human SK-MEL-5 cells assessed as growth inhibition at 10 uM; assay type: functional; conditions: read-out: GI
MDA-MB-435 = test: Cytotoxicity against human MDA-MB-435 cells assessed as growth inhibition at 10 uM; assay type: functional; conditions: read-out: GI
[10] = Cytotoxicity against human Hs578T cells assessed as growth inhibition at 10 uM; assay type: functional; conditions: Hs-578T, read-out: GI
MOLT-4 = test: Cytotoxicity against human MOLT4 cells assessed as growth inhibition at 10 uM; assay type: functional; conditions: read-out: GI
MDA-MB-231 [11] = test: Antiproliferative activity against human MDA-MB-231 cells after 72 hrs by MTT assay; assay type: functional, cell-based; conditions: MDA-MB-231, 72 h
[12] = Cytotoxicity against human UACC257 cells assessed as growth inhibition at 10 uM; assay type: functional; conditions: UACC-257, read-out: GI
NCI-H322M = test: Cytotoxicity against human NCI-H322M cells assessed as growth inhibition at 10 uM; assay type: functional; conditions: read-out: GI
PC-3 = test: Cytotoxicity against human PC3 cells assessed as growth inhibition at 10 uM; assay type: functional; conditions: read-out: GI
ACHN = test: Cytotoxicity against human ACHN cells assessed as growth inhibition at 10 uM; assay type: functional; conditions: read-out: GI
K562 = test: Cytotoxicity against human K562 cells assessed as growth inhibition at 10 uM; assay type: functional; conditions: read-out: GI
RXF 393 = test: Cytotoxicity against human RXF393 cells assessed as growth inhibition at 10 uM; assay type: functional; conditions: read-out: GI
MCF7 [13] = test: Cytotoxicity against human MCF7 cells assessed as growth inhibition at 10 uM; assay type: functional; conditions: read-out: GI
HL-60(TB) = test: Cytotoxicity against human HL-60(TB) cells assessed as growth inhibition at 10 uM; assay type: functional; conditions: read-out: GI
MDA-MB-468 = test: Cytotoxicity against human MDA-MB-468 cells assessed as growth inhibition at 10 uM; assay type: functional; conditions: read-out: GI
SW-620 = test: Cytotoxicity against human SW620 cells assessed as growth inhibition at 10 uM; assay type: functional; conditions: read-out: GI
SR = test: Cytotoxicity against human SR cells assessed as growth inhibition at 10 uM; assay type: functional; conditions: read-out: GI
HT-29 = test: Cytotoxicity against human HT-29 cells assessed as growth inhibition at 10 uM; assay type: functional; conditions: read-out: GI
[14] = Cytotoxicity against human HCT15 cells assessed as growth inhibition at 10 uM; assay type: functional; conditions: HCT-15, read-out: GI
MDA-MB-231 [15] = test: Antimigratory activity in human MDA-MB-231 cells after 24 hrs by wound healing assay; assay type: functional, cell-based; conditions: MDA-MB-231, 24 h
[16] = Cytotoxicity against human UACC62 cells assessed as growth inhibition at 10 uM; assay type: functional; conditions: UACC-62, read-out: GI
[17] = Cytotoxicity against human OVCAR8 cells assessed as growth inhibition at 10 uM; assay type: functional; conditions: OVCAR-8, read-out: GI
Caenorhabditis elegans [18] = test: Toxicity in L1 stage Caenorhabditis elegans N2 assessed as viability and reproduction at 50 uM; assay type: organism-based; conditions: in vivo
SN12C = test: Cytotoxicity against human SN12C cells assessed as growth inhibition at 10 uM; assay type: functional; conditions: read-out: GI
HOP-62 = test: Cytotoxicity against human HOP62 cells assessed as growth inhibition at 10 uM; assay type: functional; conditions: read-out: GI
Malme-3M = test: Cytotoxicity against human MALME-3M cells assessed as growth inhibition at 10 uM; assay type: functional; conditions: read-out: GI
COLO 205 = test: Cytotoxicity against human COLO205 cells assessed as growth inhibition at 10 uM; assay type: functional; conditions: read-out: GI
[19] = Cytotoxicity against human NCI-ADR-RES cells assessed as growth inhibition at 10 uM; assay type: functional; conditions: read-out: GI

C=C(C)[C@H]1O[C@H]2CC[C@@]3(C)[C@@](O)(CC[C@H]4[C@@H]5OC(C)(C)[C@H]6C[C@@H]7C(=C)Cc8ccc9[nH]c(c5c9c8[C@@]76O)[C@@]43C)[C@]23O[C@@H]3[C@H]1O
inhibition of growth at 10 µM (SNB-19): 101% | inhibition of growth at 10 µM (BT-549): 101% | inhibition of growth at 10 µM (SF-268): 88.9% | inhibition of growth at 10 µM (NCI-H226): 98.2% | Activity (Caenorhabditis elegans [1]): Non-toxic | inhibition of growth at 10 µM (NCI-H23): 117% | inhibition of growth at 10 µM (HCT-116): 92.4% | inhibition of growth at 10 µM [2]: 72.5% | inhibition (MDA-MB-231 [3]): inactive | inhibition of growth at 10 µM (MDA-MB-231 [4]): 101% | inhibition of growth at 10 µM (T47D): 94.8% | inhibition of growth at 10 µM (LOX IMVI): 105% | inhibition of growth at 10 µM (CAKI-1): 107% | inhibition of growth at 10 µM (KM12): 110% | inhibition of growth at 10 µM (SK-MEL-2): 96.4% | inhibition of growth at 10 µM [5]: 111% | inhibition of growth at 10 µM (SK-MEL-28): 110% | inhibition of growth at 10 µM (SNB-75): 84.4% | inhibition of growth at 10 µM (NCI-H522): 86% | inhibition of growth at 10 µM (U-251): 99% | inhibition of growth at 10 µM (SF-539): 90.7% | inhibition of growth at 10 µM (RPMI-8226): 72.5% | IC50 (MCF7 [6]): 17.5 µM | inhibition of growth at 10 µM [7]: 115% | inhibition of growth at 10 µM (SK-OV-3): 103% | inhibition of growth at 10 µM (CCRF-CEM): 68% | inhibition of growth at 10 µM (M14): 100% | inhibition of growth at 10 µM [8]: 104% | inhibition of growth at 10 µM (DU-145): 100% | inhibition of growth at 10 µM (TK-10): 107% | inhibition of growth at 10 µM (HCC 2998): 104% | inhibition of growth at 10 µM (IGROV-1): 89.7% | inhibition of growth at 10 µM (A549): 92.6% | inhibition of growth at 10 µM [9]: 109% | inhibition of growth at 10 µM (NCI-H460): 100% | inhibition of growth at 10 µM (786-0): 96.2% | inhibition of growth at 10 µM (SK-MEL-5): 104% | inhibition of growth at 10 µM (MDA-MB-435): 106% | inhibition of growth at 10 µM [10]: 92.2% | inhibition of growth at 10 µM (MOLT-4): 78% | IC50 (MDA-MB-231 [11]): 25.4 µM | inhibition of growth at 10 µM [12]: 97.1% | inhibition of growth at 10 µM (NCI-H322M): 99.4% | inhibition of growth at 10 µM (PC-3): 82.9% | inhibition of growth at 10 µM (ACHN): 101% | inhibition of growth at 10 µM (K562): 76.9% | inhibition of growth at 10 µM (RXF 393): 95% | inhibition of growth at 10 µM (MCF7 [13]): 100% | inhibition of growth at 10 µM (HL-60(TB)): 101% | inhibition of growth at 10 µM (MDA-MB-468): 96.6% | inhibition of growth at 10 µM (SW-620): 106% | inhibition of growth at 10 µM (SR): 91.9% | inhibition of growth at 10 µM (HT-29): 90.6% | inhibition of growth at 10 µM [14]: 98.9% | IC50 (MDA-MB-231 [15]): 20.3 µM | inhibition of growth at 10 µM [16]: 101% | inhibition of growth at 10 µM [17]: 96.9% | Activity (Caenorhabditis elegans [18]): Non-toxic | inhibition of growth at 10 µM (SN12C): 99.2% | inhibition of growth at 10 µM (HOP-62): 99.2% | inhibition of growth at 10 µM (Malme-3M): 98.5% | inhibition of growth at 10 µM (COLO 205): 106% | inhibition of growth at 10 µM [19]: 109%
